These results are taken from publication PMC11078746 (Nature, 2024).

Like-named read-outs stand apart in the source and are kept apart here.

Data set [1] addresses COX1 (Homo sapiens, UniProt P23219). Kind of data set: Safety pharmacology panel.
Data set [2] deals with CYP3A4 (Homo sapiens, UniProt P08684). In words: CYP3A4 TDI. It is filed as in vitro ADME.
The test system of data set [3] is TK6. Kind of data set: in vitro TK6 MNT. The class given is cell-based.
The subject of data set [4] is HCT116 cells. The note with it: after HRO761 treatment. On the procedure: Membranes were incubated overnight with the primary antibodies and for 1 h with the secondary antibodies. Washing steps were performed with 1× PBS containing 0.01% Tween-20. […] We performed the immunoblots three times except for blots shown in Figs. 2e and 4c and Extended Data Figs. 6b and 8f, which were performed twice. […] Uncropped and unprocessed scans of all blots are available as a Supplementary Figs. 1 (main text figures, which contain Figs. 2d,e, 3a,g and 4c) and 2 (Extended Data Figs. 1d,h,i, 3b–e,h,i, 5, 6a,b, 7c, 8b,g) in the Supplementary Information.

The test system of data set [5] is MSI CDX and PDX models. Kind of data set: In vivo screen in a panel of CDX and PDX models. On the set-up: species or system mouse. The note with it: 60 or 120 mg per kg once daily. Here is the method:
All animal studies were conducted in accordance with ethics and procedures covered by permit BS-2275 and BS-1975 issued by the Kantonales Veterinäramt Basel-Stadt and in strict adherence to guidelines of the Eidgenössisches Tierschutzgesetz and the Eidgenössische Tierschutzverordnung, Switzerland. All animal studies were approved by the internal ethics committee. All animals had access to food and water ad libitum and were identified with transponders. They were housed in a specific-pathogen-free facility in IVC racks under a 12 h–12 h light–dark cycle. To establish cell-line-derived xenograft models, 6–7-week-old female athymic nude (Crl:NU(NCr)-Foxn1^nu) or SCID-BEIGE (CB17.Cg-PrkdcscidLystbg-J/Crl) mice from Charles River were engrafted subcutaneously with 5 million tumour cells in HBSS (H6648, Sigma-Aldrich). For SNU-407, Lovo, IM95, RL95.2, Ishikawa and IGROV-1, the cells were concentrated in 50% Matrigel (354234, Corning). Patient-derived xenografts were induced and expanded by transplantation as previously described. […] For the efficacy experiment, mice were randomized into groups (n = 5–6) for a mean tumour size of 100–150 mm^3. […] Blood samples were collected on day 7 and 91. […] Tumour responses are reported with the measures of tumour volumes from the treatment start. […] Animals were randomized (n = 3) and tumour samples were collected at 0, 1, 4, 8 and 24 h on the first day and then collected 4 h after the last treatment on day 3, 8, 10, 14 (including a 24 h timepoint), 17 and 21. Tumours were excised, weighed, either frozen in liquid nitrogen and cryogenic dry pulverized with the CryoPrep system (model CP-02, Covaris) or processed to FFPE after fixation. […] On day 12, blood samples were collected for PK analysis. On the last day (3 h after the last treatment), tumours were excised, weighed, frozen in liquid nitrogen and cryogenic dry pulverized for PD analysis.

The subject of data set [6] is JHUEM1. In words: CFA 10-14 day clonogenic assay. The following applies: Homo sapiens. The class given is cell-based.
Data set [7] has as its system LS180. Kind of data set: CFA 10-14 day clonogenic assay. The note with it: Homo sapiens. The class given is cell-based.
Data set [8] relates to RKO. Kind of data set: CFA 10-14 day clonogenic assay. It is filed as cell-based. The following applies: Homo sapiens.
The test system of data set [9] is HEC151. Kind of data set: CFA 10-14 day clonogenic assay. The class given is cell-based. The following applies: Homo sapiens.
In data set [10] the test system is OC314. Kind of data set: CFA 10-14 day clonogenic assay. The following applies: Homo sapiens, OC-314. It is filed as cell-based.
Data set [11] relates to HEC1A. Kind of data set: CFA 10-14 day clonogenic assay. It is filed as cell-based. The note with it: Homo sapiens, HEC-1-A.
Data set [12] has as its system microsatellite-stable (MSS) cells. Kind of data set: Clonogenic assay, 10-to-14-day. The following applies: 10-to-14-day clonogenic assay.
Data set [13] relates to LS411N. Kind of data set: 4 day proliferation assay (CellTiter-Glo). For orientation: ATP-based viability assays read luminescence as a measure of living cells.
Data set [14] has as its system JHUEM1. Kind of data set: 4 day proliferation assay (CellTiter-Glo). The following applies: Homo sapiens, 96 h, read-out: 4 day assay GI50.
Data set [15] relates to HEC59. In words: 4 day proliferation assay (CellTiter-Glo). The following applies: Homo sapiens, 96 h, read-out: 4 day assay GI50.
For data set [16], the system named is OVK18. Kind of data set: 4 day proliferation assay (CellTiter-Glo). The note with it: Homo sapiens, OVK18, 96 h, read-out: 4 day assay GI50.
Data set [17] relates to JHUEM2. Kind of data set: 4 day proliferation assay (CellTiter-Glo). The following applies: Homo sapiens, 96 h, read-out: 4 day assay GI50.
The test system of data set [18] is DLD-1 (HCT15). In words: 4 day proliferation assay (CellTiter-Glo). The note with it: Homo sapiens, 96 h, read-out: 4 day assay GI50.
Data set [19] concerns EN. In words: 4 day proliferation assay (CellTiter-Glo). The note with it: Homo sapiens, 96 h, read-out: 4 day assay GI50.

Chain of COX1 (P23219 24-599): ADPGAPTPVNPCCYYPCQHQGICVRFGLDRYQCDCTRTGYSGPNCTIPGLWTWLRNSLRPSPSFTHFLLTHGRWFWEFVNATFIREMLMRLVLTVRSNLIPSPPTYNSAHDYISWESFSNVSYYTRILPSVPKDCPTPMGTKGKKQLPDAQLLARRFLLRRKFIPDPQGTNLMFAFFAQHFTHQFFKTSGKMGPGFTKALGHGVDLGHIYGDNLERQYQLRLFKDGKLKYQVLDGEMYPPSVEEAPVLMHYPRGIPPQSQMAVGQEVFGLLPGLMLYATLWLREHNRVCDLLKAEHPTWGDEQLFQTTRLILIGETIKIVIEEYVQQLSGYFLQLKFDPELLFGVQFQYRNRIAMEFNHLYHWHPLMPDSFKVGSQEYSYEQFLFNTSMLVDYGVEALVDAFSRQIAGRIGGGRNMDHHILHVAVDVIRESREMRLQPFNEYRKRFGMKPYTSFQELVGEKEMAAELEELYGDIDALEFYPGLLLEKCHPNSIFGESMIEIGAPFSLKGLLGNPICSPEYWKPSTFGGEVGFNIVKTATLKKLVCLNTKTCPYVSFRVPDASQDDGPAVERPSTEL
Chain of CYP3A4 (P08684 whole entry, species assumed): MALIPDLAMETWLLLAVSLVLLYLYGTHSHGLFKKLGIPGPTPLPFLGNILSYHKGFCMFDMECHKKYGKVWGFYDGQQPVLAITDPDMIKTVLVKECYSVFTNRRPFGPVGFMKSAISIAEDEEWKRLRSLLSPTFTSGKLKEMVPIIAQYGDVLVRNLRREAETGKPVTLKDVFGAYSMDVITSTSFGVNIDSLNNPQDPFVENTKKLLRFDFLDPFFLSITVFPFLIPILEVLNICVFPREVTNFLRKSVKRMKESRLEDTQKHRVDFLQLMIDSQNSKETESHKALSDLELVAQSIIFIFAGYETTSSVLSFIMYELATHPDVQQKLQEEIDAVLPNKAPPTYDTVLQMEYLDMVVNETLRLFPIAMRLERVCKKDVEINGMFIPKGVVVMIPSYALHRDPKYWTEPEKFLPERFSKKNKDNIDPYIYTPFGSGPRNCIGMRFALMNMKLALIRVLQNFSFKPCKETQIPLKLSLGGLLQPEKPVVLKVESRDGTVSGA

Broadly, the GI50 is the concentration giving 50% growth inhibition. With `CCc1c(N2CCN(C(=O)c3ncnc(C)c3O)CC2)c(=O)n2nc(C3=CCOCC3)nc2n1CC(=O)Nc1ccc(C(F)(F)F)cc1Cl` [HRO761], the “Safety pharmacology panel: COX1” value in data set [1] worked out at 9 μM. Also, the “CYP3A4 TDI” value in [2] is on record as “No TDI”. For the same molecule, in data set [3], the “in vitro TK6 MNT” value was “Negative”. In addition, in data set [4], the “start of WRN degradation” value came to 8 h. For the same molecule, the complete responses in data set [5] is 9%. Besides, the disease control rate result in data set [5] is given as “approximately 70%”. Moreover, the partial responses in [5] is 30%. In [5], this molecule yielded a stable diseases of 35%. In addition, the GI50 in data set [6] was 35 nM; in data set [7] it was 131 nM; in data set [8] it was 243 nM; in [9], 303 nM; in data set [10] it was 4630 nM; in [11] it was at least 10000 nM. In addition, the 50% growth inhibitory concentration (GI50) is 147 nM in data set [13] (Homo sapiens, LS-411N, 96 h, read-out: 4 day assay GI50, LS411N); 257 nM in data set [13] (read-out: 4 day assay GI50, LS411N); 946 nM in data set [14]; at least 10000 nM in data set [15]; at least 10000 nM in [16]; at least 10000 nM in data set [17]. Moreover, the concentration for 50% growth inhibition (GI50) in data set [18] and in data set [19] was at least 10000 nM in each case. In addition, in data set [12], the effect on viability result was “no effect”.
